Results reported in PMC7935272 (PLoS Pathogens, 2021).

Target: MeV L1708 (Measles virus, UniProt Q9WMB3)
Assay: Biolayer interferometry, MeV L1708 WT
Assay type: binding
Conditions: for BLI sensorgram signal: time r4=0 s, r5=0.2 s, r6=0.4 s, r7=0.6 s; for S5 E BLI response versus compound conc. / S5 F BLI response versus compound conc.: L1708 wt; for S5 B BLI sensorgram response / S5 C BLI sensorgram response: MeV L1708 WT

Sequence of MeV L1708 (Q9WMB3 1-1708): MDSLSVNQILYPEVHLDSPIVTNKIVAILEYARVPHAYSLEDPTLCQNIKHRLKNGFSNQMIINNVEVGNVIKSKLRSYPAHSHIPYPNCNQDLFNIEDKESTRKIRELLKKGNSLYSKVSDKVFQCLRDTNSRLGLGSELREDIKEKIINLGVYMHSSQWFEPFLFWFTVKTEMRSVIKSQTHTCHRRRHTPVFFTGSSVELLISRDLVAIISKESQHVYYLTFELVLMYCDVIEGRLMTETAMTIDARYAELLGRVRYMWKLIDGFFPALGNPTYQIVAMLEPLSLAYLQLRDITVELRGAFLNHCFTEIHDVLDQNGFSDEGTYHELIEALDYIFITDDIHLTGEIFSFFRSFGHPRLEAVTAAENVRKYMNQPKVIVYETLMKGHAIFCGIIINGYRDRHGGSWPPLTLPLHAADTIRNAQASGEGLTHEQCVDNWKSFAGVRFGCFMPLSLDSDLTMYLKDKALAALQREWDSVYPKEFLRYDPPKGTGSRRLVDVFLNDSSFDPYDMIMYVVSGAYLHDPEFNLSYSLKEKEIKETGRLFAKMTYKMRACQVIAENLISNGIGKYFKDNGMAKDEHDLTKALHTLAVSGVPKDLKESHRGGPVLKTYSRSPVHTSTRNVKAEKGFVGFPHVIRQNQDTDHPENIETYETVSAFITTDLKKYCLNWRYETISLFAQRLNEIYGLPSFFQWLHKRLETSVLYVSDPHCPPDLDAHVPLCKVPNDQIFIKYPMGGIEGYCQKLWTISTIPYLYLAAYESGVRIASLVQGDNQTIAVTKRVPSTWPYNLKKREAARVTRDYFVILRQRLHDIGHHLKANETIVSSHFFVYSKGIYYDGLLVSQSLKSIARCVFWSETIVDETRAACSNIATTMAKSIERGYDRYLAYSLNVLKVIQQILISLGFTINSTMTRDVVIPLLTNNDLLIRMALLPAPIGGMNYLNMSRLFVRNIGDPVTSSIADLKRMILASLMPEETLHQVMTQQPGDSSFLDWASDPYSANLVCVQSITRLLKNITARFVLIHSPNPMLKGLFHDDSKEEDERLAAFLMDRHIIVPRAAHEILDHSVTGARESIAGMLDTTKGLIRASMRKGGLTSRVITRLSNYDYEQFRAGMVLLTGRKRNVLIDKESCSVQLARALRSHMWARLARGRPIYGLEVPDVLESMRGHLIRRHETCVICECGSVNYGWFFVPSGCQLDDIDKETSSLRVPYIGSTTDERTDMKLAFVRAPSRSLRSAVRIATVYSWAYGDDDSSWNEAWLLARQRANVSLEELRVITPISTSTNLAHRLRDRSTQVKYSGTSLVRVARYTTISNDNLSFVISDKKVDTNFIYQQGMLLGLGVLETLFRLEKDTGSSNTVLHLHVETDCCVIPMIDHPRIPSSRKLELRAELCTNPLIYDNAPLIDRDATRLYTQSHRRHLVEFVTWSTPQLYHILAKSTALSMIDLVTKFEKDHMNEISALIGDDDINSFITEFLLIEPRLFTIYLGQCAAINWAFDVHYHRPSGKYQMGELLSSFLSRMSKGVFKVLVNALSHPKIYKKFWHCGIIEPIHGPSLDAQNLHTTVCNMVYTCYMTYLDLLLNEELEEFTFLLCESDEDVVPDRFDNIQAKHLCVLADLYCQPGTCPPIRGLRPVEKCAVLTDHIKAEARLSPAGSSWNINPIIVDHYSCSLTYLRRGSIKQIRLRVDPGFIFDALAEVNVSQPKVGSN
Sequence of MeV L1708 (Q9WMB4 whole entry partner): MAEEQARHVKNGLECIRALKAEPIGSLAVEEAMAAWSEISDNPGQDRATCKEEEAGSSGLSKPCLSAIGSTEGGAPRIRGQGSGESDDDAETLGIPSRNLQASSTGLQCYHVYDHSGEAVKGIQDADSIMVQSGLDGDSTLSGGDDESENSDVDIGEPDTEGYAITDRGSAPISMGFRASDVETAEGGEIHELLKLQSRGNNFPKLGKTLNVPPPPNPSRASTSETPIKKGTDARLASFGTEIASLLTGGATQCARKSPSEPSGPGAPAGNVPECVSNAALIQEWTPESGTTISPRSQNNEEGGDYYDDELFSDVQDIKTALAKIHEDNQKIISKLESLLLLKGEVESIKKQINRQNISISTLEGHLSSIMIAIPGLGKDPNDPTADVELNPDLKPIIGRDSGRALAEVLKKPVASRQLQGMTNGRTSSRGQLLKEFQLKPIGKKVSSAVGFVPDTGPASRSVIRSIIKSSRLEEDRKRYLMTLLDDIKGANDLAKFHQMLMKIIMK

For `Cn1nc(C(F)(F)F)cc1C(=O)Nc1ccc(S(=O)(=O)N2CCCC[C@H]2CCN2CCOCC2)cc1` [ERDRP-0519, S(=O)(=O)(N1[C@H](CCN2CCOCC2)CCCC1)c1ccc(NC(=O)c2n(C)nc(C(F)(F)F)c2)cc1], the BLI sensorgram signal (0.027 µM, 0 s after start) was 0.003933, the BLI sensorgram signal (0.027 µM, 0.2 s after start) was 0.003451 and the BLI sensorgram signal (0.027 µM, 0.4 s after start) was 0.003441. For the same molecule, the BLI sensorgram signal (0.027 µM, 0.6 s after start) was 0.002991, the BLI sensorgram signal (0.08 µM, 0 s after start) was 0.004633 and the BLI sensorgram signal (0.08 µM, 0.2 s after start) was 0.004988. It also gave a BLI sensorgram signal (0.08 µM, 0.4 s after start) of 0.005321, a BLI sensorgram signal (0.08 µM, 0.6 s after start) of 0.005054 and a BLI sensorgram signal (0.74 µM, 0 s after start) of 0.0125. It also gave a BLI sensorgram signal (0.74 µM, 0.2 s after start) of 0.01183, a BLI sensorgram signal (0.74 µM, 0.4 s after start) of 0.01188 and a BLI sensorgram signal (0.74 µM, 0.6 s after start) of 0.0114. It also gave a BLI sensorgram signal (2.22 µM, 0 s after start) of 0.01275, a BLI sensorgram signal (2.22 µM, 0.2 s after start) of 0.01261 and a BLI sensorgram signal (2.22 µM, 0.4 s after start) of 0.01211. It also gave a BLI sensorgram signal (2.22 µM, 0.6 s after start) of 0.01142, a BLI sensorgram signal (6.67 µM, 0 s after start) of 0.009323 and a BLI sensorgram signal (6.67 µM, 0.2 s after start) of 0.01006. The BLI sensorgram signal (6.67 µM, 0.4 s after start) was 0.01027, the BLI sensorgram signal (6.67 µM, 0.6 s after start) was 0.01076 and the “S5 E BLI response versus compound conc.” value (compound conc. 0.1 uM) was 0.01921. For the same molecule, the “S5 F BLI response versus compound conc.” value (compound conc. 0.1 uM) was 0.02408, the “S5 E BLI response versus compound conc.” value (compound conc. 0.25 uM) was 0.02429 and the “S5 F BLI response versus compound conc.” value (compound conc. 0.25 uM) was 0.0326. The “S5 E BLI response versus compound conc.” value (compound conc. 1 uM) was 0.03022, the “S5 F BLI response versus compound conc.” value (compound conc. 1 uM) was 0.03823 and the “S5 E BLI response versus compound conc.” value (compound conc. 5 uM) was 0.0316. For the same molecule, the “S5 F BLI response versus compound conc.” value (compound conc. 5 uM) was 0.04742, the “S5 B BLI sensorgram response” value (100 nM, time 0 s) was -0.001906 and the “S5 C BLI sensorgram response” value (100 nM, time 0 s) was 0.005581. The “S5 B BLI sensorgram response” value (100 nM, time 0.2 s) was -0.001896, the “S5 C BLI sensorgram response” value (100 nM, time 0.2 s) was 0.006504 and the “S5 B BLI sensorgram response” value (100 nM, time 0.4 s) was -0.001894. The “S5 C BLI sensorgram response” value (100 nM, time 0.4 s) was 0.007379, the “S5 B BLI sensorgram response” value (100 nM, time 0.6 s) was -0.001966 and the “S5 C BLI sensorgram response” value (100 nM, time 0.6 s) was 0.008161. For the same molecule, the “S5 B BLI sensorgram response” value (250 nM, time 0 s) was -0.005003, the “S5 C BLI sensorgram response” value (250 nM, time 0 s) was -0.0006808 and the “S5 B BLI sensorgram response” value (250 nM, time 0.2 s) was -0.005217. For the same molecule, the “S5 C BLI sensorgram response” value (250 nM, time 0.2 s) was -0.0001528, the “S5 B BLI sensorgram response” value (250 nM, time 0.4 s) was -0.005452 and the “S5 C BLI sensorgram response” value (250 nM, time 0.4 s) was 0.0001322. The “S5 B BLI sensorgram response” value (250 nM, time 0.6 s) was -0.004917, the “S5 C BLI sensorgram response” value (250 nM, time 0.6 s) was 0.0008364 and the “S5 B BLI sensorgram response” value (1 µM, time 0 s) was -0.01251. The “S5 C BLI sensorgram response” value (1 µM, time 0 s) was -0.001989, the “S5 B BLI sensorgram response” value (1 µM, time 0.2 s) was -0.01197 and the “S5 C BLI sensorgram response” value (1 µM, time 0.2 s) was -0.00137. The “S5 B BLI sensorgram response” value (1 µM, time 0.4 s) was -0.01055, the “S5 C BLI sensorgram response” value (1 µM, time 0.4 s) was -0.0005476 and the “S5 B BLI sensorgram response” value (1 µM, time 0.6 s) was -0.009819. For the same molecule, the “S5 B BLI sensorgram response” value (5 µM, time 0 s) was -0.006751, the “S5 B BLI sensorgram response” value (5 µM, time 0.2 s) was -0.006914 and the “S5 C BLI sensorgram response” value (5 µM, time 0.2 s) was 0.003468. For the same molecule, the “S5 B BLI sensorgram response” value (5 µM, time 0.4 s) was -0.007277, the “S5 C BLI sensorgram response” value (5 µM, time 0.4 s) was 0.003613 and the “S5 B BLI sensorgram response” value (5 µM, time 0.6 s) was -0.007135.
